Source: patent publication US20120245137A1 (Zalicus Pharmaceuticals Ltd., priority 2009, published 2012)
Like-named read-outs stand apart in the source and are kept apart here.

What was measured:
Type in all cases: cell-based
[1] = biological target: T-type calcium channel (Homo sapiens, UniProt O43497); experiment: T-type channel blocking, FLIPR data (Table 6); conditions: CAv3.1
Source text: (§1) Another method, high-throughput spectrophotometric assay, utilizes loading of the cell lines with a fluorescent dye sensitive to intracellular calcium concentration and subsequent examination of the effects of compounds on the ability of depolarization by potassium chloride or other means to alter intracellular calcium levels.

[2] = biological target: T-type calcium channel (Homo sapiens, UniProt O95180); experiment: T-type channel blocking, FLIPR data (Table 6); conditions: for CAv3.2 IC50 Ratio closed/inact.: CAv3.2, ratio closed/inactivated IC50
Source text: as §1

[3] = biological target: Human Cav 2.2 channels (Homo sapiens, UniProt Q00975); experiment: Fluorescent assay for CaV2.2 channels using potassium depolarization (VIPR/FLIPR); conditions: FLIPR data; for CAv2.2 IC50 Ratio closed/inact.: ratio closed/inactivated IC50
In short: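 HEK293 cells stably expressing human Cav2.2 with α2δ and β subunits plus Kir2.3 were loaded with fluo-4 and incubated 30 min at 25 °C with compound in 4, 12, 25 or 30 mM potassium buffer. Channels were opened with 70 mM potassium (final) and calcium influx was read by fluorescence (Ex 480/Em 535 nm).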

[4] = biological target: CAv1.2 (Homo sapiens, UniProt Q13936); experiment: FLIPR data, CAv1.2 channel blocking (Table 6); conditions: for CAv1.2 IC50 Ratio closed/inact.: ratio closed/inactivated IC50
[5] = CAv3.2, closed state, read-out: CAv3.2 IC50 Closed
[6] = CAv3.2, inactivated state, read-out: CAv3.2 IC50 Inact.
[7] = closed state, read-out: CAv2.2 IC50 Closed
[8] = inactivated state, read-out: CAv2.2 IC50 Inact.
[9] = closed state, read-out: CAv1.2 IC50 Closed
[10] = inactivated state, read-out: CAv1.2 IC50 Inact.

Chain of CAv1.2 (Q13936 whole entry): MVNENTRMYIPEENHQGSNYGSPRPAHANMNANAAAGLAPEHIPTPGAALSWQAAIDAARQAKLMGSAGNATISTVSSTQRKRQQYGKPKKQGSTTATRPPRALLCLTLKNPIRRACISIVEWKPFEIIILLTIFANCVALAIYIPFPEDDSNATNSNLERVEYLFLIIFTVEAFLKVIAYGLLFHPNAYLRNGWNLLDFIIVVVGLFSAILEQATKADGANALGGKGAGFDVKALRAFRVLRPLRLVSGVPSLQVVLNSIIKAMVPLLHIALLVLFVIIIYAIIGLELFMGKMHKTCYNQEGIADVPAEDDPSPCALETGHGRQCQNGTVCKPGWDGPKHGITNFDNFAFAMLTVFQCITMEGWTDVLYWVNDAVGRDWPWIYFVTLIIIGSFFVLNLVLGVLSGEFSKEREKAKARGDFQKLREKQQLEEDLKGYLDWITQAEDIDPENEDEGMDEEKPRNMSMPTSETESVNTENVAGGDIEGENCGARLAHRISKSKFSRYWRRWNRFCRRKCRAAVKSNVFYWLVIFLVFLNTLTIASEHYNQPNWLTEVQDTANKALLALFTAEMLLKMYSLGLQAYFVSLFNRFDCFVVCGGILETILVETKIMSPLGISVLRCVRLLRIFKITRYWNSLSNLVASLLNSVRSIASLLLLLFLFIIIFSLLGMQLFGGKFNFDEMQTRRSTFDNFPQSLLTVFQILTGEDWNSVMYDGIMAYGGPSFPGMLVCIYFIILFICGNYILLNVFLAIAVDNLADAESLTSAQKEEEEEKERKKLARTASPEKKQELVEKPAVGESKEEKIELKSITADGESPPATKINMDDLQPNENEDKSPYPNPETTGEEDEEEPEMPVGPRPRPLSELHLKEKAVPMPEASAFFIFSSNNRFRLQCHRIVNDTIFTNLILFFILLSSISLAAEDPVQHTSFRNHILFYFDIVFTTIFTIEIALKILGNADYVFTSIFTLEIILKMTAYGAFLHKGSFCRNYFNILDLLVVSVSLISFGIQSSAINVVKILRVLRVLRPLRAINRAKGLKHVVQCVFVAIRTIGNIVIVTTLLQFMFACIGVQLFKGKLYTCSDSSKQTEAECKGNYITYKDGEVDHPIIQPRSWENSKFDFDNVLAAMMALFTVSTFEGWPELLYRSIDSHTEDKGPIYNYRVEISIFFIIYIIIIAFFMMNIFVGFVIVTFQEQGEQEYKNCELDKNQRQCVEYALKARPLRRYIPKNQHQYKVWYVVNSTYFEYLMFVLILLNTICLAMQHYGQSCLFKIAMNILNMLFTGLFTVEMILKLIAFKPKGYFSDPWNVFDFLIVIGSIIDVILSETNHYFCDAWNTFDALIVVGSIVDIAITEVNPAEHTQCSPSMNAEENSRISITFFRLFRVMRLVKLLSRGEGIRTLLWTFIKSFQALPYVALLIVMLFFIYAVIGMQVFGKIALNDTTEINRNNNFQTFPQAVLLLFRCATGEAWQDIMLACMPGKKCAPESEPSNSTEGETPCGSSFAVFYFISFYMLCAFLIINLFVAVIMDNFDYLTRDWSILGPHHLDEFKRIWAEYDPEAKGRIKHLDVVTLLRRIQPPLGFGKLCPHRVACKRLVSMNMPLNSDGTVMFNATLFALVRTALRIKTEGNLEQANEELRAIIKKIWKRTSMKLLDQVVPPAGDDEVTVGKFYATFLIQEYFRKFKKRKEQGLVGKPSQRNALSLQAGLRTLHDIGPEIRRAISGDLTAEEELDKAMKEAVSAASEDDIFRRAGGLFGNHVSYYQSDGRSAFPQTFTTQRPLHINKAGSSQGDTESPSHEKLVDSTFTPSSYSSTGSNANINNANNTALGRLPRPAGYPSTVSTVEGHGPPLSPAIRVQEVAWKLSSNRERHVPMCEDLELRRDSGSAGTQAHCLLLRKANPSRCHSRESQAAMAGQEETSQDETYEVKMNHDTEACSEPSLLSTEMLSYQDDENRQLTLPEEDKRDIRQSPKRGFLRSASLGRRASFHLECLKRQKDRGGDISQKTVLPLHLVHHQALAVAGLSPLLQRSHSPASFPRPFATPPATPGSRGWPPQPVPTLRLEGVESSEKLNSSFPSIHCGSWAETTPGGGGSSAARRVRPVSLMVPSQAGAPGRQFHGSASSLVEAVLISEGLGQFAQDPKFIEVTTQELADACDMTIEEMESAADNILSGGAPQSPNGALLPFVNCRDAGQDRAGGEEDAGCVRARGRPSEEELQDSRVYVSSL
Chain of CAv1.2 (P54289 25-1103 partner): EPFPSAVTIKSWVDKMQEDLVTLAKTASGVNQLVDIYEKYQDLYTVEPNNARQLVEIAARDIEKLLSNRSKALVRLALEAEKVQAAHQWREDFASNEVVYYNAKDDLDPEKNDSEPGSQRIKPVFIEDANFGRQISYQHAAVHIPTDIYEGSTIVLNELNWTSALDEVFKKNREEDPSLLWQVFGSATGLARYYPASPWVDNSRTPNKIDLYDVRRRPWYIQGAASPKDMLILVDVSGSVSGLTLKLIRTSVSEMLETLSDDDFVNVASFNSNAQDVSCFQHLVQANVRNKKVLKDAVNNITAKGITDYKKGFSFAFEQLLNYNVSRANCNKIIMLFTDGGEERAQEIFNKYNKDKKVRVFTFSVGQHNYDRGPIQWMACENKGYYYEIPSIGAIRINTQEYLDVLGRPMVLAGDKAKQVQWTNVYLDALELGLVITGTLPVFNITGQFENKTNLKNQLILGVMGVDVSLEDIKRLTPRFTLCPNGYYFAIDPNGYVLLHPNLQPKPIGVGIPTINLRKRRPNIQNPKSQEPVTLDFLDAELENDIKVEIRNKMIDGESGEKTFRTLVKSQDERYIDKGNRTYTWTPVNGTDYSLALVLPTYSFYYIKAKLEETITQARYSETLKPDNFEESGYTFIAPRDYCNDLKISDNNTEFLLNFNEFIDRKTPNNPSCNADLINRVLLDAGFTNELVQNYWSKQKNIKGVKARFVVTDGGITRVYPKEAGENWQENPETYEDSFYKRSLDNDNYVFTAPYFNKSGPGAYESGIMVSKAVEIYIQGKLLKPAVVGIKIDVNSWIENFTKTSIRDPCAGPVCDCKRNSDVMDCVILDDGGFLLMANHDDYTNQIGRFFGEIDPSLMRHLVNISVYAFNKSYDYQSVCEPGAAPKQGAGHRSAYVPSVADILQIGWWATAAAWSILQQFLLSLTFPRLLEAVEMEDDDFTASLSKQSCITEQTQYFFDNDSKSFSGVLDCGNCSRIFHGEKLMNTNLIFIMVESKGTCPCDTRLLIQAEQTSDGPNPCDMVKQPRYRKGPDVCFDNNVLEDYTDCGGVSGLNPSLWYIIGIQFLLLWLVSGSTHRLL
Chain of CAv1.2 (Q08289 whole entry partner): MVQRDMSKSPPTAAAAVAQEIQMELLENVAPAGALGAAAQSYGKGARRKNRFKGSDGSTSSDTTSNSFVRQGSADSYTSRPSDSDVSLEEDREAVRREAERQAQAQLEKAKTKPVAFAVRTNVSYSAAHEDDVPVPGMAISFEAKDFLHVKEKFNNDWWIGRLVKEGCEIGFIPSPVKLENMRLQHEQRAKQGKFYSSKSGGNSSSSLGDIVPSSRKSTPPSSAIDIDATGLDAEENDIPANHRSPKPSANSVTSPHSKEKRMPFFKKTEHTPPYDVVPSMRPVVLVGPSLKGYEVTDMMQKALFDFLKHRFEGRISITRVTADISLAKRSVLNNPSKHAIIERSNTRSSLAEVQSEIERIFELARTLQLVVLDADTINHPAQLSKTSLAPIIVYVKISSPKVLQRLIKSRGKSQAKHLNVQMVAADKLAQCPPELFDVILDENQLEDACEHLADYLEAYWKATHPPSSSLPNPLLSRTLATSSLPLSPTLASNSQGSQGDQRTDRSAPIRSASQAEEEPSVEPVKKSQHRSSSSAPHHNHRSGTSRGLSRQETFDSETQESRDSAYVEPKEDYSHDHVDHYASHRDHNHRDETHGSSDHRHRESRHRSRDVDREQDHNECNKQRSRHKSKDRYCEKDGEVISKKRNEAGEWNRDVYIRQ

| Structure (SMILES) | IC50 [1] [µM] | IC50 [2, 5] [µM] | IC50 [2, 6] [µM] | CAv3.2 IC50 Ratio closed/inact. [2] | IC50 [3, 7] [µM] | IC50 [3, 8] [µM] | CAv2.2 IC50 Ratio closed/inact. [3] | IC50 [4, 9] [µM] | IC50 [4, 10] [µM] | CAv1.2 IC50 Ratio closed/inact. [4] |
| --- | --- | --- | --- | --- | --- | --- | --- | --- | --- | --- |
| CC(C)([C@H]1C[C@H](NS(=O)(=O)c2ccc(F)c(Cl)c2)C1)S(=O)(=O)c1cccc(C(F)(F)F)c1 [Compound 664] | 2.93 | 3.08 | 2.79 | 1.1 | 8.05 | 1.06 | 7.6 | ≥ 10 | 3.67 | 2.7 |
| CC(C)([C@H]1C[C@H](NS(=O)(=O)c2ccc(Cl)c(F)c2)C1)S(=O)(=O)c1cccc(C(F)(F)F)c1 [Compound 665] | 2.77 | 3.03 | 2.66 | 1.1 | 7.26 | 0.8 | 9.1 | 8.94 | 4.21 | 2.1 |
| CC(C)([C@H]1C[C@H](NS(=O)(=O)c2ccc(C(F)(F)F)cc2Cl)C1)S(=O)(=O)c1cccc(C(F)(F)F)c1 [Compound 666] | 1.59 | 2.16 | 2.17 | 1 | 10 | 0.65 | 15.4 | ≥ 10 | 2.29 | 4.4 |
| CC(C)([C@H]1C[C@H](NS(=O)(=O)c2ccc(F)c(C(F)(F)F)c2)C1)S(=O)(=O)c1cccc(C(F)(F)F)c1 [Compound 667] | 2.5 | 2.7 | 2.16 | 1.3 | 10 | 1.08 | 9.3 | 7.76 | 2.56 | 3 |
| CC(C)([C@H]1C[C@H](NS(=O)(=O)c2ccc(C(F)(F)F)nc2)C1)S(=O)(=O)c1cccc(C(F)(F)F)c1 [Compound 668] | 2.95 | 3.83 | 2.92 | 1.3 | 7.34 | 0.79 | 9.3 | ≥ 10 | 3.73 | 2.7 |
| CC(C)([C@H]1C[C@H](NS(=O)(=O)c2ccc(OC(F)(F)F)cc2)C1)S(=O)(=O)c1cccc(C(F)(F)F)c1 [Compound 669] | 2.74 | 2.65 | 2.55 | 1 | 7.9 | 0.96 | 8.2 | ≥ 10 | 3.33 | 3 |
| CC(C)([C@H]1C[C@H](NC(=O)c2cncc(C(F)(F)F)c2)C1)S(=O)(=O)c1cccc(C(F)(F)F)c1 [Compound 671] | 9.28 | 5.73 | 6.36 | 0.9 | 5.47 | 0.28 | 19.5 | ≥ 10 | 7.82 | 1.3 |
| CC(C)([C@H]1C[C@H](NC(=O)c2ccnc(C(F)(F)F)c2)C1)S(=O)(=O)c1cccc(C(F)(F)F)c1 [Compound 672] | 5.05 | 5.93 | 4.05 | 1.5 | 7.42 | 0.31 | 23.9 | ≥ 10 | 3.3 | 3 |
| CC(C)([C@H]1C[C@H](NC(=O)c2ccc(Cl)cn2)C1)S(=O)(=O)c1cccc(C(F)(F)F)c1 [Compound 673] | 6.56 | 5.37 | 4.33 | 1.2 | 1.88 | 0.2 | 9.4 | ≥ 10 | 4.57 | 2.2 |
| CC(C)([C@H]1C[C@H](NC(=O)c2ccc(OCC(F)(F)F)nc2)C1)S(=O)(=O)c1cccc(C(F)(F)F)c1 [Compound 674] | 9.43 | 2.74 | 2.39 | 1.1 | 3.01 | 0.29 | 10.4 | 7.73 | 1.74 | 4.4 |
| CC(C)([C@H]1C[C@H](NC(=O)c2ccc(C(F)(F)F)nc2)C1)S(=O)(=O)c1cccc(C(F)(F)F)c1 [Compound 675] | ≥ 10 | 7.76 | 6.23 | 1.2 | 8.63 | 0.49 | 17.6 | ≥ 10 | 5.99 | 1.7 |
